Measured values from patent US9695155B2, “Herbicidal substituted pyrimidinyloxy benzene compounds” (E. I. DU PONT DE NEMOURS AND COMPANY, priority 2013, dated 2017).

How the values were obtained:
giant foxtail [1] = assay: Test A preemergence; format: in vivo, Setaria faberii; details: for Plant response rating, Foxtail, Giant: 125 g ai/ha, 0 to 100 scale where 0 is no effect and 100 is complete control; for Foxtail, Giant plant response rating: 500 g ai/ha, 0 to 100 scale, 0 no effect, 100 complete control, approx. 10 days
Outline: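 Injury scores run from 0, no effect, to 100, complete control, judged by eye against untreated plants roughly 10 days after treatment. Chemicals carried a surfactant in a non-phytotoxic solvent and went onto loam–sand soil preemergence or onto one- to two-leaf seedlings postemergence.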

blackgrass = assay: Test C postemergence; format: in vivo, Alopecurus myosuroides; details: for Blackgrass plant response rating: 16 g ai/ha, visual rating; for Blackgrass plant response rating / Plant response rating (0 to 100), Blackgrass: postemergence; for Blackgrass plant response rating / Plant response rating, Blackgrass: scale 0 to 100 (0 no effect, 100 complete control); for Plant response rating (0 to 100), Blackgrass: 125 g ai/ha; for Plant response rating, Blackgrass: Postemergence
Outline: (§1)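 Injury was assessed visually against controls 13 to 15 days after application, with 0 meaning no effect and 100 full control; missing entries are shown as a dash. Preemergence sprays hit seeded loam–sand soil, postemergence sprays hit 1- to 4-leaf plants.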

Italian ryegrass = assay: Test C postemergence; format: in vivo, Lolium multiflorum; details: for Plant response rating (0 to 100), Ryegrass, Italian: 125 g ai/ha, postemergence; for Plant response rating, Ryegrass, Italian: Postemergence, scale 0 to 100 (0 no effect, 100 complete control)
Outline: as §1

corn = assay: Test C postemergence; format: in vivo, Zea mays; details: for Corn plant response rating: 16 g ai/ha, visual rating; for Corn plant response rating / Plant response rating (0 to 100), Corn: postemergence; for Corn plant response rating / Plant response rating, Corn: scale 0 to 100 (0 no effect, 100 complete control); for Plant response rating (0 to 100), Corn: 125 g ai/ha; for Plant response rating, Corn: Postemergence
Outline: as §1

large (Lg) crabgrass = assay: Test C postemergence; format: in vivo, Digitaria sanguinalis; details: for Crabgrass, Large plant response rating: 16 g ai/ha, visual rating; for Crabgrass, Large plant response rating / Plant response rating (0 to 100), Crabgrass, Large: postemergence; for Crabgrass, Large plant response rating / Plant response rating, Crabgrass, Large: scale 0 to 100 (0 no effect, 100 complete control); for Plant response rating (0 to 100), Crabgrass, Large: 125 g ai/ha; for Plant response rating, Crabgrass, Large: Postemergence
Outline: as §1

giant foxtail [2] = assay: Test C postemergence; format: in vivo, Setaria faberii; details: for Foxtail, Giant plant response rating: 16 g ai/ha, visual rating; for Foxtail, Giant plant response rating / Plant response rating (0 to 100), Foxtail, Giant: postemergence; for Foxtail, Giant plant response rating / Plant response rating, Foxtail, Giant: scale 0 to 100 (0 no effect, 100 complete control); for Plant response rating (0 to 100), Foxtail, Giant: 125 g ai/ha; for Plant response rating, Foxtail, Giant: Postemergence
Outline: as §1

johnsongrass = assay: Test C postemergence; format: in vivo, Sorghum halepense; details: for Johnsongrass plant response rating: 16 g ai/ha, visual rating; for Johnsongrass plant response rating / Plant response rating (0 to 100), Johnsongrass: postemergence; for Johnsongrass plant response rating / Plant response rating, Johnsongrass: scale 0 to 100 (0 no effect, 100 complete control); for Plant response rating (0 to 100), Johnsongrass: 125 g ai/ha; for Plant response rating, Johnsongrass: Postemergence
Description: (§2) Seeds of plant species selected from blackgrass (Alopecurus myosuroides), Italian ryegrass (Lolium multiflorum), wheat, winter (winter wheat, Triticum aestivum), galium (catchweed bedstraw, Galium aparine), corn (Zea mays), large (Lg) crabgrass (Digitaria sanguinalis), giant foxtail (Setaria faberii), johnsongrass (Sorghum halepense), lambsquarters (Chenopodium album), morningglory (Ipomoea coccinea), yellow nutsedge (Cyperus esculentus), pigweed (Amaranthus retroflexus), ragweed (common ragweed, Ambrosia elatior), soybean (Glycine max), barnyardgrass (Echinochloa crus-galli), oilseed rape (Brassica napus), waterhemp (common waterhemp, Amaranthus rudis), kochia (Kochia scoparia), wild oat (Avena fatua), surinam grass (Brachiaria decumbens), foxtail, green (green foxtail, Setaria viridis), goosegrass (Eleusine indica), bromegrass, downy (downy bromegrass, Bromus tectorum), nightshade (eastern black nightshade, Solanum ptycanthum), cocklebur (common cocklebur, Xanthium strumarium), cupgrass, woolly (woolly cupgrass, Eriochloa villosa), bermudagrass (Cynodon dactylon), sunflower, (common oilseed sunflower, Helianthus annuus), Russian thistle (Salsola kali), and velvetleaf (Abutilon theophrasti) were planted into a blend of loam soil and sand and treated preemergence with test chemicals formulated in a non-phytotoxic solvent mixture which included a surfactant.
(§3) At the same time, plants selected from these crop and weed species and also barley, winter (winter barley, Hordeum vulgare), windgrass (Apera spica-venti), chickweed (common chickweed, Stellaria media), deadnettle (henbit deadnettle, Lamium amplexicaule), and canarygrass (littleseed canarygrass, Phalaris minor) were planted in pots containing Redi-Earth® planting medium (Scotts Company, 14111 Scottslawn Road, Marysville, Ohio 43041) comprising spaghnum peat moss, vermiculite, wetting agent and starter nutrients and treated with postemergence applications of test chemicals formulated in the same manner. Plants ranged in height from 2 to 18 cm (1- to 4-leaf stage) for postemergence treatments. Treated plants and controls were maintained in a greenhouse for 13 to 15 days, after which time all species were compared to controls and visually evaluated. Plant response ratings, summarized in Table C, are based on a scale of 0 to 100 where 0 is no effect and 100 is complete control. A dash (-) response means no test result.

yellow nutsedge = assay: Test C postemergence; format: in vivo, Cyperus esculentus; details: for Plant response rating (0 to 100), Nutsedge, Yellow: 125 g ai/ha, postemergence; for Plant response rating, Nutsedge, Yellow: Postemergence, scale 0 to 100 (0 no effect, 100 complete control)
Description: as §2, §3

waterhemp = assay: Test C postemergence; format: in vivo, Amaranthus rudis; details: for Plant response rating (0 to 100), Waterhemp: 125 g ai/ha, postemergence; for Plant response rating, Waterhemp: Postemergence, scale 0 to 100 (0 no effect, 100 complete control)
Description: as §2, §3

wild oat = assay: Test C postemergence; format: in vivo, Avena fatua; details: for Plant response rating (0 to 100), Oat, Wild: 125 g ai/ha, postemergence; for Plant response rating, Oat, Wild: Postemergence, scale 0 to 100 (0 no effect, 100 complete control)
Description: as §2, §3

chickweed = assay: Test C postemergence; format: in vivo, Stellaria media; details: for Chickweed plant response rating: 16 g ai/ha, visual rating; for Chickweed plant response rating / Plant response rating (0 to 100), Chickweed: postemergence; for Chickweed plant response rating / Plant response rating, Chickweed: scale 0 to 100 (0 no effect, 100 complete control); for Plant response rating (0 to 100), Chickweed: 125 g ai/ha; for Plant response rating, Chickweed: Postemergence
Outline: as §1

Row | SMILES | Plant response rating, Foxtail, Giant (giant foxtail [1]) | Foxtail, Giant plant response rating (giant foxtail [1]) | Blackgrass plant response rating (blackgrass; 13 to 15 days) | Plant response rating (0 to 100), Blackgrass (blackgrass) | Plant response rating, Blackgrass (blackgrass; 31 g ai/ha, 13 to 15 days) | Plant response rating, Blackgrass (blackgrass; 62 g ai/ha) | Plant response rating (0 to 100), Ryegrass, Italian (Italian ryegrass) | Plant response rating, Ryegrass, Italian (Italian ryegrass; 31 g ai/ha, 13 to 15 days) | Plant response rating, Ryegrass, Italian (Italian ryegrass; 62 g ai/ha) | Corn plant response rating (corn; 13 to 15 days) | Plant response rating (0 to 100), Corn (corn) | Plant response rating, Corn (corn; 31 g ai/ha, 13 to 15 days) | Plant response rating, Corn (corn; 62 g ai/ha) | Crabgrass, Large plant response rating (large (Lg) crabgrass; 13 to 15 days) | Plant response rating (0 to 100), Crabgrass, Large (large (Lg) crabgrass) | Plant response rating, Crabgrass, Large (large (Lg) crabgrass; 31 g ai/ha, 13 to 15 days) | Plant response rating, Crabgrass, Large (large (Lg) crabgrass; 62 g ai/ha) | Foxtail, Giant plant response rating (giant foxtail [2]; 13 to 15 days) | Plant response rating (0 to 100), Foxtail, Giant (giant foxtail [2]) | Plant response rating, Foxtail, Giant (giant foxtail [2]; 31 g ai/ha, 13 to 15 days) | further results
1 | CC(C)c1cnn(-c2c(C#N)cccc2Oc2ncc(Cl)cn2)c1 [Compound 85] | 100 | 100 | 0 | 10 | 0 | 5 | 5 | 0 | 0 | 5 | 10 | 5 | 10 | 10 | 10 | 10 | 5 | 5 | 15 | 10 | Plant response rating, Foxtail, Giant (giant foxtail [2]; 62 g ai/ha): 10; Johnsongrass plant response rating (johnsongrass; 13 to 15 days): 0; Plant response rating (0 to 100), Johnsongrass (johnsongrass): 10; Plant response rating, Johnsongrass (johnsongrass; 31 g ai/ha, 13 to 15 days): 0; Plant response rating, Johnsongrass (johnsongrass; 62 g ai/ha): 5; Plant response rating (0 to 100), Nutsedge, Yellow (yellow nutsedge): 10; Plant response rating, Nutsedge, Yellow (yellow nutsedge; 31 g ai/ha, 13 to 15 days): 5; Plant response rating, Nutsedge, Yellow (yellow nutsedge; 62 g ai/ha): 5; Plant response rating (0 to 100), Waterhemp (waterhemp): 60; Plant response rating, Waterhemp (waterhemp; 31 g ai/ha, 13 to 15 days): 55; Plant response rating, Waterhemp (waterhemp; 62 g ai/ha): 70; Plant response rating (0 to 100), Oat, Wild (wild oat): 5; Plant response rating, Oat, Wild (wild oat; 31 g ai/ha, 13 to 15 days): 0; Plant response rating, Oat, Wild (wild oat; 62 g ai/ha): 5; Chickweed plant response rating (chickweed; 13 to 15 days): 5; Plant response rating (0 to 100), Chickweed (chickweed): 40; Plant response rating, Chickweed (chickweed; 31 g ai/ha, 13 to 15 days): 40; Plant response rating, Chickweed (chickweed; 62 g ai/ha): 50
2 | Cc1cnc(Oc2cccc(C#N)c2-n2cc(C#N)cn2)nc1 [Compound 90] | 90 | 100 | 0 | 15 | 0 | 5 | 0 | 5 | 5 | 0 | 5 | 5 | 5 | 5 | 10 | 5 | 10 | 35 | 20 | 15 | Plant response rating, Foxtail, Giant (giant foxtail [2]; 62 g ai/ha): 20; Johnsongrass plant response rating (johnsongrass; 13 to 15 days): 0; Plant response rating (0 to 100), Johnsongrass (johnsongrass): 5; Plant response rating, Johnsongrass (johnsongrass; 31 g ai/ha, 13 to 15 days): 5; Plant response rating, Johnsongrass (johnsongrass; 62 g ai/ha): 5; Plant response rating (0 to 100), Nutsedge, Yellow (yellow nutsedge): 10; Plant response rating, Nutsedge, Yellow (yellow nutsedge; 31 g ai/ha, 13 to 15 days): 5; Plant response rating, Nutsedge, Yellow (yellow nutsedge; 62 g ai/ha): 10; Plant response rating (0 to 100), Waterhemp (waterhemp): 75; Plant response rating, Waterhemp (waterhemp; 31 g ai/ha, 13 to 15 days): 35; Plant response rating, Waterhemp (waterhemp; 62 g ai/ha): 65; Plant response rating (0 to 100), Oat, Wild (wild oat): 5; Plant response rating, Oat, Wild (wild oat; 31 g ai/ha, 13 to 15 days): 0; Plant response rating, Oat, Wild (wild oat; 62 g ai/ha): 5; Chickweed plant response rating (chickweed; 13 to 15 days): 5; Plant response rating (0 to 100), Chickweed (chickweed): 50; Plant response rating, Chickweed (chickweed; 31 g ai/ha, 13 to 15 days): 30; Plant response rating, Chickweed (chickweed; 62 g ai/ha): 15
